From US20140341818A1, “SOLUBILIZED MAGNOLOL ANALOGS” (COLGATE-PALMOLIVE COMPANY, priority 2011, published 2014)
Each block holds one compound with its values, some of them ahead of it.

Columns and labels:
[1] = assay type: physicochemical
Text: The dimethyl isosorbide is capable of solubilizing up to 200 g per liter of neat propyl magnolol or isopropyl magnolol, up to 100 g per liter of isobutyl magnolol, or up to 50 g per liter of butyl magnolol. In certain embodiments, the amount of dimethyl isosorbide is at least 5 times the weight of the propyl magnolol or isopropyl magnolol in the composition. In certain embodiments, the amount of dimethyl isosorbide is at least 10 times the weight of isobutyl magnolol in the composition. In certain embodiments, the amount of dimethyl isosorbide is at least 20 times the weight of butyl magnolol in the composition.

[2] = Solubilizing isobutyl magnolol with other solubilizers; assay type: physicochemical
Text: It was surprising that dimethyl isosorbide was able to solubilize these analogs.

amount of neat magnolol analog solubilized by dimethyl isosorbide [1]: up to 200 g per liter
Structure (SMILES): CC(C)c1ccc(O)c(-c2cc(C(C)C)ccc2O)c1 [isopropyl magnolol, 5,5′-di-isopropylbiphenyl-2,2′-diol]

Structure (SMILES): CCCCc1ccc(O)c(-c2cc(CCCC)ccc2O)c1 [butyl magnolol, 5,5′-di-n-butylbiphenyl-2,2′-diol]
amount of neat magnolol analog solubilized by dimethyl isosorbide [1]: up to 50 g per liter

amount of neat magnolol analog solubilized by dimethyl isosorbide [1]: up to 200 g per liter
Structure (SMILES): CCCc1ccc(O)c(-c2cc(CCC)ccc2O)c1 [propyl magnolol, 5,5′-di-n-propylbiphenyl-2,2′-diol]

amount of neat magnolol analog solubilized by dimethyl isosorbide [1]: up to 100 g per liter
ability to solubilize ([2]; solubilizer C12-15 alkyl benzoate): not able to solubilize
ability to solubilize ([2]; solubilizer PEG-7 glyceryl cocoate): not able to solubilize
ability to solubilize ([2]; solubilizer PEG-8/SMDI copolymer): not able to solubilize
ability to solubilize ([2]; solubilizer PPG-2 hydroxyethyl cocoamide): not able to solubilize
ability to solubilize ([2]; solubilizer PPG-5 laureth-5 (Eumulgin ES)): not able to solubilize
ability to solubilize ([2]; solubilizer isopropyl myristate): not able to solubilize
ability to solubilize ([2]; solubilizer poloxamer 124): not able to solubilize
Structure (SMILES): CC(C)Cc1ccc(O)c(-c2cc(CC(C)C)ccc2O)c1 [isobutyl magnolol, 5,5′-di-isobutylbiphenyl-2,2′-diol]
